Measured values: paper PMC7180948, “New Insights into 4-Anilinoquinazolines as Inhibitors of Cardiac Troponin I–Interacting Kinase (TNNi3K)” (Molecules, 2020)

Experiments:
Test in all cases: biochemical
Parameters in all cases: KINOMEscan competition binding panel (Eurofins DiscoverX), single concentration, percent inhibition
Details in all cases: read-out: 15 at 1 µM % inhibition
ERK8 = biological target: T1, ERK8 (Homo sapiens, UniProt Q8TD08)
T1 construct: gene MAPK15
In short: (§1)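 Values come from single-concentration (1 µM) profiling in the Eurofins DiscoverX KINOMEscan competition-binding platform, which covers over 400 kinases.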

[1] = biological target: EGFR(L747-S752del, P753S) (Homo sapiens, UniProt P00533, DEL747-752/P753S)
In short: as §1

LKB1 = biological target: T2, LKB1 (Homo sapiens, UniProt Q15831)
T2 construct: gene STK11
T2 sequence (Q15831 whole entry): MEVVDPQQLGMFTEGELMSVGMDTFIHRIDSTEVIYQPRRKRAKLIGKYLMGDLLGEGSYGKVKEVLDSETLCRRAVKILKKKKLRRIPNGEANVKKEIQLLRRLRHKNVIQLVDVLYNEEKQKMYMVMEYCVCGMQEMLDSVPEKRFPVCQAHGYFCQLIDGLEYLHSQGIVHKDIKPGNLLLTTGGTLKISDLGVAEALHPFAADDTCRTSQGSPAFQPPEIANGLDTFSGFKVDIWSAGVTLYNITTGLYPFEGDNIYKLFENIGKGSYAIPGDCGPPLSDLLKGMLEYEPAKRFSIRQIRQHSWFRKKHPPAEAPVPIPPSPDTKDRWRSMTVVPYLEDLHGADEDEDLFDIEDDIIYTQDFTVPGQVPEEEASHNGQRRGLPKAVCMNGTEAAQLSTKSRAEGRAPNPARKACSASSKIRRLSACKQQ
In short: as §1

IRAK4 = IRAK4 (Homo sapiens, UniProt Q9NWZ3)
In short: as §1

STK36 = STK36 (Homo sapiens, UniProt Q9NRP7)
In short: as §1

MEK4 = biological target: T3, MEK4 (Homo sapiens, UniProt P45985)
T3 construct: gene MAP2K4
In short: as §1

MYLK = MYLK (Homo sapiens, UniProt Q15746)
Chain of MYLK (Q15746 whole entry): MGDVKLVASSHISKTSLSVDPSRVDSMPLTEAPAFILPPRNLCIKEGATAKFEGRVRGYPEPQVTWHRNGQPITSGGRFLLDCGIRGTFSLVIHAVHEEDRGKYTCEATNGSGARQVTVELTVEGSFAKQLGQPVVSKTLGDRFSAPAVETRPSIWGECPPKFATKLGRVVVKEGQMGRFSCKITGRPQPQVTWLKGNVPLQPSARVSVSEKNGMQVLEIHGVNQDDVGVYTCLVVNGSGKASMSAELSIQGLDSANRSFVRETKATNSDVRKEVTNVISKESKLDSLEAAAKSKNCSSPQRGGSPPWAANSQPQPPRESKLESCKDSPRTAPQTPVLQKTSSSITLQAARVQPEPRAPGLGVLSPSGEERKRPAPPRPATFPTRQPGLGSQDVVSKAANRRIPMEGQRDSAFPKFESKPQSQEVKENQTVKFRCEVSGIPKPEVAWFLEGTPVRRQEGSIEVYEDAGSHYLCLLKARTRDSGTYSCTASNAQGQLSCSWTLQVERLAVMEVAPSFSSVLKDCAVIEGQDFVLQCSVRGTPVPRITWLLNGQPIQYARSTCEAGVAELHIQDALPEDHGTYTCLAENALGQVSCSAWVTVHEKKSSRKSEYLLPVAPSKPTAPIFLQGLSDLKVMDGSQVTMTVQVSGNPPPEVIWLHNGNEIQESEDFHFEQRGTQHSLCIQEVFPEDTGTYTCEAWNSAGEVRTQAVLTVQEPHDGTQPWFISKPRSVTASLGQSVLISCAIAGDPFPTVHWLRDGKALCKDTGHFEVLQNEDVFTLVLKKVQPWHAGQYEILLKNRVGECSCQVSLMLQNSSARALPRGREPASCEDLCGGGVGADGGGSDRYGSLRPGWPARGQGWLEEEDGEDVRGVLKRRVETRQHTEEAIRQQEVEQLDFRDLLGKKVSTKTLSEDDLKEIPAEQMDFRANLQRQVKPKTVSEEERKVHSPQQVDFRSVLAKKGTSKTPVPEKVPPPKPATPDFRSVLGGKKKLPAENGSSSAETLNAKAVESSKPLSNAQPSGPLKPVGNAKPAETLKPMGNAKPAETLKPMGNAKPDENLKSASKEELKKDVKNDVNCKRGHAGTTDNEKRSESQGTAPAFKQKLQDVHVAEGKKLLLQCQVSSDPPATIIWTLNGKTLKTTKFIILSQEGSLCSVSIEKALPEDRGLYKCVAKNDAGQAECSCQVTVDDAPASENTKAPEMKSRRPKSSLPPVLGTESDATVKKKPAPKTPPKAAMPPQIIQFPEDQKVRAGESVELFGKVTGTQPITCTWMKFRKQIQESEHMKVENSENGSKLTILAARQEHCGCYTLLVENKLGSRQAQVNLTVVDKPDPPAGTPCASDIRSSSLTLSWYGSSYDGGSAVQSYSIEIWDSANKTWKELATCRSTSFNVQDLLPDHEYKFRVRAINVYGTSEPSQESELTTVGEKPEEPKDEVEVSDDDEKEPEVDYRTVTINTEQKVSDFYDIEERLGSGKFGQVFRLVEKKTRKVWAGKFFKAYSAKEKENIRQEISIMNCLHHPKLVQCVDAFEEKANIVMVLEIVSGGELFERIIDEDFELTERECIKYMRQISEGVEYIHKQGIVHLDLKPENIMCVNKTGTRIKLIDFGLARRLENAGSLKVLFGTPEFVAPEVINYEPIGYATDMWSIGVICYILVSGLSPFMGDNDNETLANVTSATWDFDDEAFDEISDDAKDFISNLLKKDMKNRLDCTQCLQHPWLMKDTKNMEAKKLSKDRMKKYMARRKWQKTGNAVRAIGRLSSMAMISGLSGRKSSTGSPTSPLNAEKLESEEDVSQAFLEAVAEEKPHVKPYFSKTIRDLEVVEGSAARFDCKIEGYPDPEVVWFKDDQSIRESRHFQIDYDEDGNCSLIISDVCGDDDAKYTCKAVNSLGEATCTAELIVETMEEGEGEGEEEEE
In short: as §1

NEK11 = NEK11 (Homo sapiens, UniProt Q8NG66)
In short: as §1

CDK4-cyclinD3 = biological target: T4, CDK4-cyclinD3 (Homo sapiens, UniProt P11802)
T4 construct: cyclinD3
T4 sequence (P11802 whole entry): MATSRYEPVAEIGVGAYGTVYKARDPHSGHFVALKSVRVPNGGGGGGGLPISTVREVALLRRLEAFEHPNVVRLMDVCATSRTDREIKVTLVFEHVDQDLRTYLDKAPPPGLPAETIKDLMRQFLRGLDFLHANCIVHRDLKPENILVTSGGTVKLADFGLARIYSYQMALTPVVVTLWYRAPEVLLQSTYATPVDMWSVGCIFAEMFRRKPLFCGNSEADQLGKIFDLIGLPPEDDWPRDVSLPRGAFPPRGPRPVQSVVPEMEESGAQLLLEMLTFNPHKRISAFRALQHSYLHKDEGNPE
T4 sequence (P30281 whole entry partner): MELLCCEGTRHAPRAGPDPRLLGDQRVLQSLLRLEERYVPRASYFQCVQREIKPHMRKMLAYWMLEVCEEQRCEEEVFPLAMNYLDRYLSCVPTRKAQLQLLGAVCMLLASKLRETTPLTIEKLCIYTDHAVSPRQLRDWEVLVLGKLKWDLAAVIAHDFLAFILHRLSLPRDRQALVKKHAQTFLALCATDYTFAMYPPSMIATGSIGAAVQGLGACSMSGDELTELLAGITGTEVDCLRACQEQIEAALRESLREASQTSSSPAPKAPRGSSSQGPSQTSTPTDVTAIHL
In short: as §1

MAP3K3 = MAP3K3 (Homo sapiens, UniProt Q99759)
In short: as §1

SNRK = SNRK (Homo sapiens, UniProt Q9NRH2)
Chain of SNRK (Q9NRH2 whole entry): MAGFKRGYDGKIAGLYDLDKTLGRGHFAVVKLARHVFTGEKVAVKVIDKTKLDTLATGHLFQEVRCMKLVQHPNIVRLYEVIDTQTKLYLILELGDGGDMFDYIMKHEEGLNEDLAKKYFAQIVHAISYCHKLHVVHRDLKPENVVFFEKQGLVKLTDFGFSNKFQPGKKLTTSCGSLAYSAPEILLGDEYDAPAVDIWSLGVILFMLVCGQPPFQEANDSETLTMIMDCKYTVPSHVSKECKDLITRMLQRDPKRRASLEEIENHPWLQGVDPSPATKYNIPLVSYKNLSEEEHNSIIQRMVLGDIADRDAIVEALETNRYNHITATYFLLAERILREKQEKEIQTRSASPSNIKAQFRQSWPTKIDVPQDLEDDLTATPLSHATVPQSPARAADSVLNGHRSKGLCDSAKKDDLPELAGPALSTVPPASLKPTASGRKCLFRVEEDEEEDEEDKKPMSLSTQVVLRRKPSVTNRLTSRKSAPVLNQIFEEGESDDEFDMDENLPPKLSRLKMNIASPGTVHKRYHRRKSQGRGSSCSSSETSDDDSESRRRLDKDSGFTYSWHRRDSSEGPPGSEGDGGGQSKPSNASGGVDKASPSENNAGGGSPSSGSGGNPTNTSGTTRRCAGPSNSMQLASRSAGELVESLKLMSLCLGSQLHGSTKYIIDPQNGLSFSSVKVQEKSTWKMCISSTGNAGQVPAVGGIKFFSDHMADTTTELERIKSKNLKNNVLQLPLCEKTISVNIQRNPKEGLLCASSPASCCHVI
In short: as §1

PIK3CA(I800L) = PIK3CA(I800L) (Homo sapiens, UniProt P42336, I800L)
In short: as §1

FGFR4 = FGFR4 (Homo sapiens, UniProt P22455)
In short: as §1

QSK = biological target: T5, QSK (Homo sapiens, UniProt Q9Y2K2)
T5 construct: gene SIK3
In short: as §1

TNIK = TNIK (Homo sapiens, UniProt Q9UKE5)
In short: as §1

INSRR = INSRR (Homo sapiens, UniProt P14616)
In short: as §1

CTK = biological target: T6, CTK (Homo sapiens, UniProt P42679)
T6 construct: gene MATK
In short: as §1

VEGFR2 = biological target: T7, VEGFR2 (Homo sapiens, UniProt P35968)
T7 construct: gene KDR
T7 sequence (P35968 whole entry): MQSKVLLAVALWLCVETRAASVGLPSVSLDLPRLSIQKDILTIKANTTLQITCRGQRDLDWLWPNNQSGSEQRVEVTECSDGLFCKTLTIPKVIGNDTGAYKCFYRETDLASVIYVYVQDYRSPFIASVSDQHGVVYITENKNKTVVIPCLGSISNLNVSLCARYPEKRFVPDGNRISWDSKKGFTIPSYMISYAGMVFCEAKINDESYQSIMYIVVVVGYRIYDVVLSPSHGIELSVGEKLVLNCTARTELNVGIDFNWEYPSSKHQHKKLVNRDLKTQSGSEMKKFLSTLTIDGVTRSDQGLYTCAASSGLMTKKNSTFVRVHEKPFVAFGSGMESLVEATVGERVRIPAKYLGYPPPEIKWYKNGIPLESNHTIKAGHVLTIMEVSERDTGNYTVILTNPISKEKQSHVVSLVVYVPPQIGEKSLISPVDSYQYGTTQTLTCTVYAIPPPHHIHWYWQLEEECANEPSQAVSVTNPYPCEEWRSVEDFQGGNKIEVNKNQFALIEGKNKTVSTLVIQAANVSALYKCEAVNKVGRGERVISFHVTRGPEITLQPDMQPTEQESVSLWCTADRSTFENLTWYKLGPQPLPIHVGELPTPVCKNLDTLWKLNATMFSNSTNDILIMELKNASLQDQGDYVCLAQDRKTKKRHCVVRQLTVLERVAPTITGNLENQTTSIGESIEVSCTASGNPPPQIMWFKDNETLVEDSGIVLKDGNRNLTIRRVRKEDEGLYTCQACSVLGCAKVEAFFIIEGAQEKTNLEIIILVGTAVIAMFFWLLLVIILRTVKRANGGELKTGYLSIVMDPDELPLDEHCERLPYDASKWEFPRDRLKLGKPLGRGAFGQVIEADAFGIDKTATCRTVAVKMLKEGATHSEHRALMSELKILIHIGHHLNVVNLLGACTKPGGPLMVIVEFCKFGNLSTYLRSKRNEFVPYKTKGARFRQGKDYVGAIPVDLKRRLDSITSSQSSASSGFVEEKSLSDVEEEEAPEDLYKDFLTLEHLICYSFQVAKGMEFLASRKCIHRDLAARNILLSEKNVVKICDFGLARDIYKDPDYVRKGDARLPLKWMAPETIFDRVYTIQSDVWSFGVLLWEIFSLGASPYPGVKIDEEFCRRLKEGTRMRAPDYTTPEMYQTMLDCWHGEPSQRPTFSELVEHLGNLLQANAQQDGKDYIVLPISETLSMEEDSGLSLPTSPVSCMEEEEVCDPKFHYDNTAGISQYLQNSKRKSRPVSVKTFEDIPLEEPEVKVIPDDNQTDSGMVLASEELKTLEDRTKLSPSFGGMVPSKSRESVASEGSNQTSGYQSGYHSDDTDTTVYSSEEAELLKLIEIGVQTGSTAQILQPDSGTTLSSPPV
In short: as §1

FLT3(ITD) = FLT3(ITD) (Homo sapiens, UniProt P36888, ITD)
In short: as §1

EGFR(L858R,T790M) = EGFR(L858R,T790M) (Homo sapiens, UniProt P00533, L858R/T790M)
In short: as §1

TRKC = biological target: T8, TRKC (Homo sapiens, UniProt Q16288)
T8 construct: gene NTRK3
In short: as §1

TLK1 = TLK1 (Homo sapiens, UniProt Q9UKI8)
In short: as §1

LOK = biological target: T9, LOK (Homo sapiens, UniProt O94804)
T9 construct: gene STK10
In short: as §1

FGFR2 = FGFR2 (Homo sapiens, UniProt P21802)
In short: as §1

inhibition at 1 µM [1]: 11% | inhibition at 1 µM (LKB1): 0% | inhibition at 1 µM (IRAK4): 0% | inhibition at 1 µM (STK36): 0% | inhibition at 1 µM (MEK4): 25% | inhibition at 1 µM (MYLK): 0% | inhibition at 1 µM (NEK11): 12% | inhibition at 1 µM (CDK4-cyclinD3): 15% | inhibition at 1 µM (MAP3K3): 44% | inhibition at 1 µM (SNRK): 13% | inhibition at 1 µM (PIK3CA(I800L)): 38% | inhibition at 1 µM (FGFR4): 4% | inhibition at 1 µM (QSK): 22% | inhibition at 1 µM (TNIK): 1% | inhibition at 1 µM (INSRR): 22% | inhibition at 1 µM (CTK): 0% | inhibition at 1 µM (VEGFR2): 12% | inhibition at 1 µM (FLT3(ITD)): 0% | inhibition at 1 µM (EGFR(L858R,T790M)): 16% | inhibition at 1 µM (TRKC): 22% | inhibition at 1 µM (TLK1): 9% | inhibition at 1 µM (LOK): 7% | inhibition at 1 µM (FGFR2): 0%
SMILES: CNS(=O)(=O)c1ccc(N(C)C)c(Nc2nc(C)nc3cc(OC)c(OC)cc23)c1 [compound 15, 3-((6,7-dimethoxy-2-methylquinazolin-4-yl)amino)-4-(dimethylamino)-N-methylbenzenesulfonamide]
inhibition at 1 µM (ERK8): 0%
